BindingDB's records for doi:10.1021/np900246t (Griffith University, 2009)

Target: MAP kinase-activated protein kinase 2 (Homo sapiens, UniProt P49137)
Experiment: Inhibition of GST-tagged MAPKAPK2 assessed as [33P] incorporation after 40 mins by scintillation proximity assay

MAP kinase-activated protein kinase 2, sequence (P49137 whole entry): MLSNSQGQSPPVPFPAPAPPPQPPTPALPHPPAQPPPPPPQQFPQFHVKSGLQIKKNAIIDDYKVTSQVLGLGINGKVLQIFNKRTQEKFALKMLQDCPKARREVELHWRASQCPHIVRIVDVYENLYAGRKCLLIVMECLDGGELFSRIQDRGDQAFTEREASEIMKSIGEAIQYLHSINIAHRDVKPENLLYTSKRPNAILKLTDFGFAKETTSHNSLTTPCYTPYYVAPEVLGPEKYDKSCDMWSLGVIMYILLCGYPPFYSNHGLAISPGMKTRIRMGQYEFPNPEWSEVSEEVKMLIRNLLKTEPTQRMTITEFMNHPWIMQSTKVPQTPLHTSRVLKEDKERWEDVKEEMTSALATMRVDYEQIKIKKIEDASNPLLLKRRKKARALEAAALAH

SMILES	IC50 [µM]
CC(C)=CCC/C(C)=C/C[C@]12C[C@@H](CC=C(C)C)[C@](C)(CCC=C(C)C)[C@](CC=C(C)C)(C(=O)C(C(=O)c3ccc(O)c(O)c3)C1=O)C2=O (some centres not stated) [guttiferone P]	22
CC(C)=CCC/C(C)=C/C[C@]12C[C@@H](CC=C(C)C)C(C)(C)[C@](C/C=C(\C)CCC=C(C)C)(C(=O)C(C(=O)c3ccc(O)c(O)c3)C1=O)C2=O (some centres not stated) [guttiferone O]	22
